Test results as given in patent US10537103B2, “Antibacterial composition containing an isomer mixture of monosaccharide alkyl monoacetals or monoethers” (TEREOS STARCH & SWEETENERS BELGIUM, priority 2014, dated 2020).
Converted amounts (≈) assume the structure as drawn.

Legend:
[1] = test system: L. monocytogenes (CIP 103575); test: Minimum inhibitory concentration (MIC), 96-well microplate microdilution; type: cell-based; details: Listeria monocytogenes, CIP103575, 18 h at 37° C.
Procedure: (§1) The bacteriostatic properties of the derivatives are evaluated by measuring their minimum inhibitory concentration (MIC) on the bacteria tested. These measurements are made using the 96-well microplate microdilution method according to the conditions defined below.
(§2) The minimum inhibitory concentrations (MIC) are tested on Gram-positive bacterial strains according to the recommendations of the “Clinical Laboratory Standards Institute” (Clinical-Laboratory-Standards-Institute, 6th ed. Approved standard M100-S17. CLSI, Wayne, Pa., 2007).
(§3) The Gram-positive bacteria studied are as follows: L. monocytogenes (CIP 103575), E. faecalis (ATCC® 29212™) and S. aureus (ATCC® 292213™).
(§4) The cultures studied, freshly isolated (after incubation on a blood agar at 37° C. for 18 h), are taken up in sterile water (10 mL) until obtaining a 0.5 McFarland (Mc) suspension i.e. 1 to 2×10^8 CFU (bacteria)/cm^3. The bacterial suspension was then diluted to obtain a final concentration of 5×10^5 CFU/cm^3.
(§5) Each well contains an identical quantity of Mueller-Hinton medium (a rich medium for bacterial culture) and bacteria with final 5×10^5 CFU/cm^3.
(§6) The test compounds of interest are solubilized in 2.5% m of ethanol before being diluted to different concentrations two by two.
(§7) On the multiwell plate, a first series has been planned comprising the culture medium without the test compound of interest. It corresponds to the growth control (control well). These controls serve as reference for comparing bacterial growth with that of the subsequent wells comprising different concentrations of the test compound of interest. The second series of wells comprises the mother solution for the test compound of interest for a concentration in the wells of 4 mM. Each series of wells was diluted two by two until the last series for a final concentration of 0.003 mM. Each concentration is duplicated in the same plate. The plate is incubated for 18 h at 37° C. […] If there is antibacterial activity, the bacterial growth is inhibited, which means that no turbidity or bacterial residue is present.
(§8) Tests have been conducted on Gram-positive bacteria with methyl glucopyranoside derivatives. […] After sterilization the solutions are diluted in water. […] Because precipitates formed in the solutions, the effect of these methyl glucopyranoside C10 and C12 acetals was not able to be evaluated. The results obtained for antimicrobial tests on the 3 bacterial strains L. monocytogenes (CIP 103575), E. faecalis (ATCC® 29212) and S. aureus (ATCC® […]) are summarized in Table 1.
(§9) The sorbitan C5, C6, C8, C10 and C12 acetals and ethers were then tested under the same conditions as previously and on the same bacterial strains (see example 5).

[2] = test system: S. aureus (ATCC 292213); test: as above; type: cell-based; details: Staphylococcus aureus, ATCC292213, 18 h at 37° C.
Procedure: as §1, §2, §3, §4, §5, §6, §7, §8, §9

[3] = test system: E. faecalis (ATCC 29212); test: as above; type: cell-based; details: 18 h at 37° C.; for MIC: Enterococcus faecalis, ATCC29212, 18 h
Procedure: as §1, §2, §3, §4, §5, §6, §7, §8, §9

[4] = Water solubility of test solutions; type: physicochemical; details: solutions diluted in water, 2.5% m ethanol; precipitates formed
Procedure: as §8

[5] = test system: S. aureus; details: cited from earlier work
[6] = test system: L. monocytogenes; details: cited from earlier work
[7] = test system: Gram-positive bacteria (L. monocytogenes, E. faecalis, S. aureus); test: MIC / antimicrobial activity stated for the Gram-positive strains studied together; type: cell-based; details: concentrations less than or equal to 4 mM
Procedure: as §1, §2, §3, §4
Each well contains an identical quantity of Mueller-Hinton medium (a rich medium for bacterial culture) and bacteria with final 5×10^5 CFU/cm^3. […]
Tests have been conducted on Gram-positive bacteria with methyl glucopyranoside derivatives. […] Because precipitates formed in the solutions, the effect of these methyl glucopyranoside C10 and C12 acetals was not able to be evaluated. […]

SMILES | MIC [1] | MIC [2] | MIC [3] | melting point | further results
CCCCC1OCC2O[C@H](OC)C(O)C(O)[C@@H]2O1 (stereo partly drawn) [Compound 1a, Methyl 4,6-O-pentylidene α-D-glucopyranoside] | > 4 mM | > 4 mM | > 4 mM |  | 
CCCCCC1OCC2O[C@H](OC)C(O)C(O)[C@@H]2O1 (stereo partly drawn) [Compound 1b, Methyl 4,6-O-Hexylidene α-D-glucopyranoside] | > 4 mM | > 4 mM | > 4 mM |  | 
CCCCCCCCCCCC(=O)OCC(O)CO (centres unmarked) [ML, monolaurine] |  |  |  |  | Minimum inhibitory concentration (MIC) S. aureus, compounds known in the prior art [5]: 0.04 mM (≈ 11 µg/mL); Minimum inhibitory concentration (MIC) L. monocytogenes, compounds known in the prior art [6]: 0.04 mM (≈ 11 µg/mL)
CCCCCCCCCCCC=O [dodecanal] |  |  |  |  | antimicrobial activity on the different bacterial strains [7]: no antimicrobial activity

The next lines start with results.

MIC [1] | MIC [2] | MIC [3] | melting point | SMILES | further results
2 mM (≈ 609 µg/mL) | 4 mM (≈ 1220 µg/mL) | 2 mM (≈ 609 µg/mL) |  | CCCCCCCC1OCC2O[C@H](OC)C(O)C(O)[C@@H]2O1 (stereo partly drawn) [Compound 1c, Methyl 4,6-O-Octylidene α-D-glucopyranoside] | Minimum inhibitory concentration (MIC) E. faecalis ([3]; listed as AcC8 MeGlu): 4 mM (≈ 1220 µg/mL)
 |  |  | 72 °C | CCCCCCCCCC1OCC2O[C@H](OC)C(O)C(O)[C@@H]2O1 (stereo partly drawn) [Compound 1d, Methyl 4,6-O-Decylidene α-D-glucopyranoside] | water solubility [4]: low water solubility
 |  |  | 104 °C | CCCCCCCCCCCC1OCC2O[C@H](OC)C(O)C(O)[C@@H]2O1 (stereo partly drawn) [Compound 1g, Methyl 4,6-O-Dodecylidene α-D-mannopyranoside] | 
 |  |  | 115 °C | CCCCCCCCCCCC1OCC2O[C@H](OC)C(O)C(O)[C@H]2O1 (stereo partly drawn) [Compound 1h, Methyl 4,6-O-Dodecylidene α-D-galactopyranoside] | 
